Results as given in patent publication US20100298141A1, “SUBSTITUTED PYRIDINE N-OXIDE HERBICIDES” (E. I. DU PONT DE NEMOURS AND COMPANY, priority 2007, published 2010).

What was measured:
[1] = tested on: barnyardgrass; assay: Test A pre-/postemergence greenhouse test; type: in vivo, Echinochloa crus-galli; conditions: for Barnyardgrass plant response rating: 0 to 100 scale; for Plant response rating, Barnyardgrass: 0 to 100 scale where 0 is no effect and 100 is complete control
Summary of the method: (§1)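 Pots of loam–sand soil sown with the test species are sprayed preemergence on the soil surface; emerged seedlings (1–2 leaves, 2–10 cm) are sprayed postemergence at the same time. The vehicle is a non-phytotoxic solvent mixture with surfactant. Injury is scored visually after ~10 d in greenhouse.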

[2] = tested on: crabgrass; assay: Test A pre-/postemergence greenhouse test; type: in vivo, Digitaria sanguinalis; conditions: for Crabgrass, Large plant response rating: 0 to 100 scale; for Plant response rating, Crabgrass, Large: 0 to 100 scale where 0 is no effect and 100 is complete control
Summary of the method: as §1

[3] = tested on: wheat; assay: Test A pre-/postemergence greenhouse test; type: in vivo, Triticum aestivum; conditions: for Wheat plant response rating: 0 to 100 scale; for Plant response rating, Wheat: 0 to 100 scale where 0 is no effect and 100 is complete control
Summary of the method: as §1

[4] = tested on: corn; assay: Test A pre-/postemergence greenhouse test; type: in vivo, Zea mays; conditions: for Corn plant response rating: 0 to 100 scale; for Plant response rating, Corn: 0 to 100 scale where 0 is no effect and 100 is complete control
Summary of the method: as §1

[5] = tested on: Italian ryegrass; assay: Test C pre-/postemergence test; type: in vivo, Lolium multiflorum
Summary of the method: (§2)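 Test chemicals were formulated with surfactant in a non-phytotoxic solvent and sprayed both on freshly planted seeds (preemergence) and on 1- to 4-leaf plants of 2–18 cm (postemergence). Flooded-paddy pots received compound directly into 3 cm of standing water, maintained for the test.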

[6] = tested on: Surinam grass; assay: Test C pre-/postemergence test; type: in vivo, Brachiaria decumbens
Summary of the method: as §2

[7] = tested on: corn; assay: Test C pre-/postemergence test; type: in vivo, Zea mays; conditions: for Plant response rating (0 to 100), Corn: 250 g ai/ha
Summary of the method: as §2

[8] = tested on: crabgrass; assay: Test C pre-/postemergence test; type: in vivo, Digitaria sanguinalis; conditions: for Plant response rating (0 to 100), Crabgrass, Large: 250 g ai/ha
Summary of the method: as §2

[9] = tested on: giant foxtail; assay: Test C pre-/postemergence test; type: in vivo, Setaria faberii; conditions: for Plant response rating (0 to 100), Foxtail, Giant: 250 g ai/ha
Summary of the method: as §2

[10] = tested on: Goosegrass; assay: Test C pre-/postemergence test; type: in vivo, Eleusin indica; conditions: for Plant response rating (0 to 100), Goosegrass: 250 g ai/ha
Summary of the method: as §2

[11] = tested on: johnsongrass; assay: Test C pre-/postemergence test; type: in vivo, Sorghum halepense; conditions: for Plant response rating (0 to 100), Johnsongrass: 250 g ai/ha
Summary of the method: as §2

[12] = tested on: morningglory; assay: Test C pre-/postemergence test; type: in vivo, Ipomoea coccinea
Summary of the method: as §2

[13] = tested on: eastern black nightshade; assay: Test C pre-/postemergence test; type: in vivo, Solanum ptycanthum
Summary of the method: as §2

[14] = tested on: pigweed; assay: Test C pre-/postemergence test; type: in vivo, Amaranthus retroflexus
Summary of the method: as §2

[15] = tested on: common (oilseed) sunflower; assay: Test C pre-/postemergence test; type: in vivo, Helianthus annuus
Summary of the method: as §2

[16] = tested on: velvetleaf; assay: Test C pre-/postemergence test; type: in vivo, Abutilon theophrasti
Summary of the method: as §2

[17] = tested on: umbrella sedge; assay: Test C flooded paddy test; type: in vivo, Cyperus difformis; conditions: Flood
Summary of the method: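 Compound was added to standing water 3 cm above soil, flood maintained, and plants held in a greenhouse before visual scoring against controls at 13 to 15 days.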

[18] = Postemergence, 125 g ai/ha, 0 is no effect, 100 is complete control
[19] = Postemergence, 500 g ai/ha, 0 is no effect, 100 is complete control
[20] = Preemergence, 125 g ai/ha, 0 no effect, 100 complete control
[21] = 31 g ai/ha, Preemergence, scale 0 to 100
[22] = 62 g ai/ha, preemergence, scale 0 (no effect) to 100 (complete control)
[23] = preemergence, 125 g ai/ha, scale 0 (no effect) to 100 (complete control)
[24] = 31 g ai/ha, scale 0 to 100 (0 no effect, 100 complete control)
[25] = 62 g ai/ha, scale 0 to 100, 0 no effect, 100 complete control, 13 to 15 days
[26] = 125 g ai/ha, scale 0 to 100, 0 no effect, 100 complete control, 13 to 15 days
[27] = 62 g ai/ha, Preemergence, scale 0 to 100
[28] = Preemergence, 31 g ai/ha, scale 0 to 100 (0 no effect, 100 complete control)

Cc1cc[n+]([O-])c(S(=O)(=O)C(C)c2c(C(F)(F)F)nn(C)c2Cl)c1 (racemic) [Compound 14]
Barnyardgrass plant response rating [1, 18]: 30 | Barnyardgrass plant response rating [1, 19]: 60 | Barnyardgrass plant response rating [1, 20]: 80 | Plant response rating, Barnyardgrass ([1]; Preemergence, 500 g ai/ha): 100 | Crabgrass, Large plant response rating [2, 18]: 40 | Crabgrass, Large plant response rating [2, 19]: 70 | Crabgrass, Large plant response rating [2, 20]: 90 | Plant response rating, Crabgrass, Large ([2]; Preemergence, 500 g ai/ha): 100 | Wheat plant response rating [3, 18]: 40 | Wheat plant response rating [3, 19]: 50 | Wheat plant response rating [3, 20]: 40 | Plant response rating, Wheat ([3]; Preemergence, 500 g ai/ha): 60 | Corn plant response rating [4, 18]: 0 | Corn plant response rating [4, 19]: 50 | Corn plant response rating [4, 20]: 0 | Plant response rating, Corn ([4]; Preemergence, 500 g ai/ha): 70 | Ryegrass, Italian plant response rating [5, 21]: 20 | Ryegrass, Italian plant response rating [5, 22]: 55 | Plant response rating (0 to 100), Ryegrass, Italian ([5]; Preemergence, 250 g ai/ha): 100 | Ryegrass, Italian plant response rating [5, 23]: 100 | Surinam Grass plant response rating [6, 22]: 85 | Plant response rating (0 to 100), Surinam Grass ([6]; Preemergence, 250 g ai/ha): 100 | Surinam Grass plant response rating [6, 23]: 95 | Corn plant response rating [7, 21]: 0 | Corn plant response rating [7, 22]: 20 | Plant response rating (0 to 100), Corn ([7]; Preemergence): 80 | Corn plant response rating [7, 23]: 60 | Crabgrass, Large plant response rating [8, 21]: 100 | Crabgrass, Large plant response rating [8, 22]: 100 | Plant response rating (0 to 100), Crabgrass, Large ([8]; Preemergence): 100 | Crabgrass, Large plant response rating [8, 23]: 100 | Foxtail, Giant plant response rating [9, 21]: 85 | Foxtail, Giant plant response rating [9, 22]: 85 | Plant response rating (0 to 100), Foxtail, Giant ([9]; Preemergence): 100 | Foxtail, Giant plant response rating [9, 23]: 100 | Goosegrass plant response rating [10, 21]: 100 | Goosegrass plant response rating [10, 22]: 100 | Plant response rating (0 to 100), Goosegrass ([10]; Preemergence): 100 | Goosegrass plant response rating [10, 23]: 100 | Johnsongrass plant response rating [11, 21]: 45 | Johnsongrass plant response rating [11, 22]: 60 | Plant response rating (0 to 100), Johnsongrass ([11]; Preemergence): 100 | Johnsongrass plant response rating [11, 23]: 100 | Morningglory plant response rating [12, 21]: 5 | Morningglory plant response rating [12, 22]: 98 | Plant response rating (0 to 100), Morningglory ([12]; Preemergence, 250 g ai/ha): 100 | Morningglory plant response rating [12, 23]: 100 | Nightshade plant response rating [13, 21]: 80 | Nightshade plant response rating [13, 22]: 100 | Plant response rating (0 to 100), Nightshade ([13]; Preemergence, 250 g ai/ha): 100 | Nightshade plant response rating [13, 23]: 100 | Pigweed plant response rating [14, 21]: 100 | Pigweed plant response rating [14, 22]: 100 | Plant response rating (0 to 100), Pigweed ([14]; Preemergence, 250 g ai/ha): 100 | Pigweed plant response rating [14, 23]: 100 | Sunflower plant response rating [15, 22]: 85 | Plant response rating (0 to 100), Sunflower ([15]; Preemergence, 250 g ai/ha): 100 | Sunflower plant response rating [15, 23]: 98 | Velvetleaf plant response rating [16, 22]: 10 | Plant response rating (0 to 100), Velvetleaf ([16]; Preemergence, 250 g ai/ha): 100 | Velvetleaf plant response rating [16, 23]: 100 | Plant response rating, Sedge, Umbrella [17, 24]: 75 | Plant response rating, Sedge, Umbrella [17, 25]: 85 | Plant response rating, Sedge, Umbrella [17, 26]: 100 | Plant response rating, Sedge, Umbrella ([17]; 250 g ai/ha, scale 0 to 100 (0 no effect, 100 complete control)): 100

Cn1nc(C(F)(F)F)c(C[S+]([O-])c2cc(C(C)(C)C)cc[n+]2[O-])c1OC(F)F (racemic) [Compound 24]
Barnyardgrass plant response rating [1, 18]: 30 | Barnyardgrass plant response rating [1, 19]: 50 | Barnyardgrass plant response rating [1, 20]: 60 | Plant response rating, Barnyardgrass ([1]; Preemergence, 500 g ai/ha): 100 | Crabgrass, Large plant response rating [2, 18]: 0 | Crabgrass, Large plant response rating [2, 19]: 60 | Crabgrass, Large plant response rating [2, 20]: 90 | Plant response rating, Crabgrass, Large ([2]; Preemergence, 500 g ai/ha): 100 | Wheat plant response rating [3, 18]: 0 | Wheat plant response rating [3, 19]: 30 | Wheat plant response rating [3, 20]: 50 | Plant response rating, Wheat ([3]; Preemergence, 500 g ai/ha): 90 | Corn plant response rating [4, 18]: 0 | Corn plant response rating [4, 19]: 40 | Corn plant response rating [4, 20]: 0 | Plant response rating, Corn ([4]; Preemergence, 500 g ai/ha): 40 | Ryegrass, Italian plant response rating [5, 27]: 0 | Plant response rating, Ryegrass, Italian [5, 28]: 0 | Surinam Grass plant response rating [6, 27]: 40 | Plant response rating, Surinam Grass [6, 28]: 20 | Corn plant response rating [7, 27]: 50 | Plant response rating, Corn [7, 28]: 0 | Plant response rating (0 to 100), Corn ([7]; Preemergence): 90 | Corn plant response rating [7, 23]: 90 | Crabgrass, Large plant response rating [8, 27]: 100 | Plant response rating, Crabgrass, Large [8, 28]: 100 | Plant response rating (0 to 100), Crabgrass, Large ([8]; Preemergence): 100 | Foxtail, Giant plant response rating [9, 27]: 90 | Plant response rating, Foxtail, Giant [9, 28]: 70 | Plant response rating (0 to 100), Foxtail, Giant ([9]; Preemergence): 100 | Goosegrass plant response rating [10, 27]: 100 | Plant response rating, Goosegrass [10, 28]: 85 | Plant response rating (0 to 100), Goosegrass ([10]; Preemergence): 100 | Johnsongrass plant response rating [11, 27]: 90 | Plant response rating, Johnsongrass [11, 28]: 50 | Plant response rating (0 to 100), Johnsongrass ([11]; Preemergence): 100 | Morningglory plant response rating [12, 27]: 80 | Plant response rating, Morningglory [12, 28]: 70 | Nightshade plant response rating [13, 27]: 100 | Plant response rating, Nightshade [13, 28]: 100 | Pigweed plant response rating [14, 27]: 100 | Plant response rating, Pigweed [14, 28]: 100 | Sunflower plant response rating [15, 27]: 0 | Plant response rating, Sunflower [15, 28]: 0 | Velvetleaf plant response rating [16, 27]: 100 | Plant response rating, Velvetleaf [16, 28]: 55 | Plant response rating, Sedge, Umbrella [17, 24]: 60 | Plant response rating, Sedge, Umbrella [17, 25]: 85 | Plant response rating, Sedge, Umbrella [17, 26]: 95 | Plant response rating, Sedge, Umbrella ([17]; 250 g ai/ha, scale 0 to 100, 0 no effect, 100 complete control, 13 to 15 days): 95
